Measurements taken from ChEMBL document CHEMBL1671626, “In vitro profiling of ceftaroline against a collection of recent bacterial clinical isolates from across the United States” (2008).

Columns and labels:
Format in all cases: functional
[1] = test system: Streptococcus pneumoniae; assay: Antibacterial activity against penicillin-susceptible Streptococcus pneumoniae assessed as susceptible isolates by CLSI M7-A7 broth microdilution method
[2] = test system: Staphylococcus aureus; assay: Antibacterial activity against methicillin-susceptible Staphylococcus aureus assessed as resistant isolates by CLSI M7-A7 broth microdilution method
[3] = test system: Staphylococcus aureus; assay: Antibacterial activity against coagulase-negative and oxacillin-resistant Staphylococcus aureus assessed as resistant isolates by CLSI M7-A7 broth microdilution method
[4] = test system: Enterococcus faecalis; assay: Antibacterial activity against vancomycin-susceptible Enterococcus faecalis assessed as susceptible isolates by CLSI M7-A7 broth microdilution method
[5] = test system: Staphylococcus aureus; assay: Antibacterial activity against coagulase-negative and oxacillin-susceptible Staphylococcus aureus by CLSI M7-A7 broth microdilution method
[6] = test system: Staphylococcus aureus; assay: Antibacterial activity against methicillin-resistant Staphylococcus aureus by CLSI M7-A7 broth microdilution method
[7] = test system: Streptococcus pneumoniae; assay: Antibacterial activity against penicillin-resistant Streptococcus pneumoniae by CLSI M7-A7 broth microdilution method
[8] = test system: Staphylococcus aureus; assay: Antibacterial activity against coagulase-negative and oxacillin-susceptible Staphylococcus aureus assessed as resistant isolates by CLSI M7-A7 broth microdilution method
[9] = test system: Streptococcus pyogenes; assay: Antibacterial activity against erythromycin-nonsusceptible Streptococcus pyogenes assessed as susceptible isolates by CLSI M7-A7 broth microdilution method
[10] = test system: Streptococcus pneumoniae; assay: Antibacterial activity against penicillin-resistant Streptococcus pneumoniae assessed as susceptible isolates by CLSI M7-A7 broth microdilution method
[11] = test system: Streptococcus viridans; assay: Antibacterial activity against penicillin-susceptible Streptococcus viridans by CLSI M7-A7 broth microdilution method
[12] = test system: Enterococcus faecium; assay: Antibacterial activity against vancomycin-resistant Enterococcus faecium by CLSI M7-A7 broth microdilution method
[13] = test system: Streptococcus agalactiae; assay: Antibacterial activity against erythromycin-nonsusceptible Streptococcus agalactiae assessed as susceptible isolates by CLSI M7-A7 broth microdilution method
[14] = test system: Streptococcus viridans; assay: Antibacterial activity against penicillin-nonsusceptible Streptococcus viridans assessed as susceptible isolates by CLSI M7-A7 broth microdilution method
[15] = test system: Streptococcus pyogenes; assay: Antibacterial activity against erythromycin-susceptible Streptococcus pyogenes by CLSI M7-A7 broth microdilution method
[16] = test system: Streptococcus viridans; assay: Antibacterial activity against penicillin-susceptible Streptococcus viridans assessed as susceptible isolates by CLSI M7-A7 broth microdilution method
[17] = test system: Enterococcus faecalis; assay: Antibacterial activity against vancomycin-resistant Enterococcus faecalis by CLSI M7-A7 broth microdilution method
[18] = test system: Enterococcus faecium; assay: Antibacterial activity against vancomycin-resistant Enterococcus faecium assessed as susceptible isolates by CLSI M7-A7 broth microdilution method
[19] = test system: Enterococcus faecium; assay: Antibacterial activity against vancomycin-resistant Enterococcus faecium assessed as resistant isolates by CLSI M7-A7 broth microdilution method
[20] = test system: Enterococcus faecalis; assay: Antibacterial activity against vancomycin-resistant Enterococcus faecalis assessed as resistant isolates by CLSI M7-A7 broth microdilution method
[21] = test system: Streptococcus agalactiae; assay: Antibacterial activity against erythromycin-susceptible Streptococcus agalactiae assessed as susceptible isolates by CLSI M7-A7 broth microdilution method
[22] = test system: Streptococcus agalactiae; assay: Antibacterial activity against erythromycin-susceptible Streptococcus agalactiae by CLSI M7-A7 broth microdilution method
[23] = test system: Staphylococcus aureus; assay: Antibacterial activity against methicillin-resistant Staphylococcus aureus assessed as resistant isolates by CLSI M7-A7 broth microdilution method
[24] = test system: Staphylococcus aureus; assay: Antibacterial activity against coagulase-negative and oxacillin-resistant Staphylococcus aureus by CLSI M7-A7 broth microdilution method
[25] = test system: Streptococcus pyogenes; assay: Antibacterial activity against erythromycin-nonsusceptible Streptococcus pyogenes by CLSI M7-A7 broth microdilution method
[26] = test system: Enterococcus faecalis; assay: Antibacterial activity against vancomycin-resistant Enterococcus faecalis assessed as susceptible isolates by CLSI M7-A7 broth microdilution method
[27] = test system: Streptococcus pneumoniae; assay: Antibacterial activity against penicillin-susceptible Streptococcus pneumoniae by CLSI M7-A7 broth microdilution method
[28] = test system: Enterococcus faecalis; assay: Antibacterial activity against vancomycin-susceptible Enterococcus faecalis assessed as resistant isolates by CLSI M7-A7 broth microdilution method
[29] = test system: Streptococcus viridans; assay: Antibacterial activity against penicillin-nonsusceptible Streptococcus viridans by CLSI M7-A7 broth microdilution method
[30] = test system: Streptococcus agalactiae; assay: Antibacterial activity against erythromycin-nonsusceptible Streptococcus agalactiae by CLSI M7-A7 broth microdilution method
[31] = test system: Enterococcus faecalis; assay: Antibacterial activity against vancomycin-susceptible Enterococcus faecalis by CLSI M7-A7 broth microdilution method
[32] = test system: Streptococcus pyogenes; assay: Antibacterial activity against erythromycin-susceptible Streptococcus pyogenes assessed as susceptible isolates by CLSI M7-A7 broth microdilution method
[33] = test system: Staphylococcus aureus; assay: Antibacterial activity against methicillin-susceptible Staphylococcus aureus by CLSI M7-A7 broth microdilution method

CN[C@H](CC(C)C)C(=O)N[C@H]1C(=O)N[C@@H](CC(N)=O)C(=O)N[C@H]2C(=O)N[C@H]3C(=O)N[C@H](C(=O)N[C@H](C(=O)O)c4cc(O)cc(O)c4-c4cc3ccc4O)[C@H](O)c3ccc(c(Cl)c3)Oc3cc2cc(c3O[C@@H]2O[C@H](CO)[C@@H](O)[C@H](O)[C@H]2O[C@H]2C[C@](C)(N)[C@H](O)[C@H](C)O2)Oc2ccc(cc2Cl)[C@H]1O [VANCOMYCIN]
100%: Activity [1] | Activity [4] | Activity [9] | Activity [10] | Activity [13] | Activity [16] | Activity [19] | Activity [20] | Activity [21] | Activity [32]
0.25 µg/mL: MIC50 [7] | MIC [15] | MIC50 [15] | MIC [25] | MIC50 [25] | MIC50 [27]
> 16 µg/mL: MIC [12] | MIC50 [12] | MIC90 [12] | MIC [17] | MIC50 [17] | MIC90 [17]
0.5 µg/mL: MIC90 [7] | MIC50 [11] | MIC90 [11] | MIC90 [15] | MIC50 [22] | MIC90 [22] | MIC90 [25] | MIC90 [27] | MIC [29] | MIC50 [29] | MIC50 [30] | MIC90 [30] | MIC50 [33]
1 µg/mL: MIC50 [5] | MIC50 [6] | MIC90 [6] | MIC50 [24] | MIC90 [29] | MIC50 [31] | MIC90 [33]
0.3%: Activity [23]
92.9%: Activity [14]
2 µg/mL: MIC90 [5] | MIC90 [24] | MIC90 [31]
0%: Activity [2] | Activity [3] | Activity [8] | Activity [18] | Activity [26] | Activity [28]
